Results published in patent US12594276B2, “Inhibitors of human immunodeficiency virus replication” (ViiV Healthcare UK (No.5) Limited, priority 2024, dated 2026).

Key:
[1] = system: recombinant NL4-3 virus (nef section replaced with Renilla luciferase gene) in MT-2 cells; assay: HIV cell culture assay (antiviral activity, luciferase readout); assay type: cell-based; conditions: Renilla, NL43, MT-2 cells infected for 4-5 days with recombinant NL4-3 Renilla luciferase virus
Summary of the method: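 EC50 was derived by median-effect fitting of Renilla luciferase signal from MT-2 cells. These cells were infected for 4–5 days with NL4-3 reporter virus (nef partly replaced by luciferase; made in 293T cells) in the presence of serially diluted compound. Activity was quantified with a live-cell luciferase substrate.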

[2] = Compound cytotoxicity, XTT-based colorimetric assay; assay type: cell-based; conditions: human; uninfected MT2 cells, day 4, XTT; read-out: CC50
Summary of the method: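 Cells seeded as for the antiviral assay but left uninfected (MT2). Compound exposure continued to day 4. XTT reagent added and colour read. CC50 calculated.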

`Cc1cc(C2(F)CCC(F)(F)CC2)nc2nc([C@H](Cc3cc(F)cc(F)c3)NC(=O)Cn3nc(C4CC4)c4c3C[C@@H]3C[C@H]43)n(-c3ccc(Cl)c4c(NS(C)(=O)=O)nn(C[C@H](C)N5C[C@@H](C)O[C@@H](C)C5)c34)c(=O)c12` (relative stereo) [Example 722, N-[(1S)-1-[(3P)-3-{4-chloro-1-[(2S)-2-[(2R,6S)-2,6-dimethylmorpholin-4-yl]propyl]-3-methanesulfonamido-1H-indazol-7-yl}-5-methyl-4-oxo-7-(1,4,4-trifluorocyclohexyl)-3H,4H-pyrido[2,3-d]pyrimidin-2-yl]-2-(3,5-difluorophenyl)ethyl]-2-[(2R*,4R*)-9-cyclopropyl-7,8-diazatricyclo[4.3.0.0^2,^4]nona-1(6),8-dien-7-yl]acetamide] showed an EC50 [1] of 0.007 nM and a CC50 at 4 days [2] of over 20 nM.
Work on `Cc1cc(C2(F)CCC(F)(F)CC2)nc2nc([C@H](Cc3cc(F)cc(F)c3)NC(=O)Cn3nc(C4CC4)c4c3C[C@@H]3C[C@H]43)n(-c3ccc(Cl)c4c(NS(C)(=O)=O)nn(C[C@@H](C)N5C[C@@H](C)O[C@@H](C)C5)c34)c(=O)c12` (relative stereo) [Example 723, N-[(1S)-1-[(3P)-3-{4-chloro-1-[(2R)-2-[(2R,6S)-2,6-dimethylmorpholin-4-yl]propyl]-3-methanesulfonamido-1H-indazol-7-yl}-5-methyl-4-oxo-7-(1,4,4-trifluorocyclohexyl)-3H,4H-pyrido[2,3-d]pyrimidin-2-yl]-2-(3,5-difluorophenyl)ethyl]-2-[(2R*,4R*)-9-cyclopropyl-7,8-diazatricyclo[4.3.0.0^2,^4]nona-1(6),8-dien-7-yl]acetamide] yielded an EC50 [1] of 0.012 nM and a CC50 at 4 days [2] of over 20 nM.
Compound `Cc1cc(C2CCC(F)(F)CC2)nc2nc([C@H](Cc3cc(F)cc(F)c3)NC(=O)Cn3nc(C4CC4)c4c3C[C@@H]3C[C@H]43)n(-c3ccc(Cl)c4c(NS(C)(=O)=O)nn([C@@H](C)CN5CC(C)(C)OC(C)(C)C5)c34)c(=O)c12` (relative stereo) [Example 724, N-[(1S)-1-[(3P)-3-{4-chloro-3-methanesulfonamido-1-[(2S)-1-(2,2,6,6-tetramethylmorpholin-4-yl)propan-2-yl]-1H-indazol-7-yl}-7-(4,4-difluorocyclohexyl)-5-methyl-4-oxo-3H,4H-pyrido[2,3-d]pyrimidin-2-yl]-2-(3,5-difluorophenyl)ethyl]-2-[(2R*,4R*)-9-cyclopropyl-7,8-diazatricyclo[4.3.0.0^2,^4]nona-1(6),8-dien-7-yl]acetamide] has an EC50 [1] of 0.036 nM and a CC50 at 4 days [2] of over 20 nM.
For `Cc1cc(C2(F)CCC(F)(F)CC2)nc2nc([C@H](Cc3cc(F)cc(F)c3)NC(=O)Cn3nc(C4CC4)c4c3C[C@@H]3C[C@H]43)n(-c3ccc(Cl)c4c(NS(C)(=O)=O)nn([C@H](C)CN5C[C@@H](C)O[C@@H](C)C5)c34)c(=O)c12` (relative stereo) [Example 730, N-[(1S)-1-[(3P)-3-{4-chloro-1-[(2R)-1-[(2R,6S)-2,6-dimethylmorpholin-4-yl]propan-2-yl]-3-methanesulfonamido-1H-indazol-7-yl}-5-methyl-4-oxo-7-(1,4,4-trifluorocyclohexyl)-3H,4H-pyrido[2,3-d]pyrimidin-2-yl]-2-(3,5-difluorophenyl)ethyl]-2-[(2R*,4R*)-9-cyclopropyl-7,8-diazatricyclo[4.3.0.0^2,^4]nona-1(6),8-dien-7-yl]acetamide], the EC50 [1] was 0.032 nM and the CC50 at 4 days [2] was over 20 nM.
Compound `Cc1cc(C2CCC(F)(F)CC2)nc2nc([C@H](Cc3cc(F)cc(F)c3)NC(=O)Cn3nc(C4CC4)c4c3C[C@@H]3C[C@H]43)n(-c3ccc(Cl)c4c(NS(C)(=O)=O)nn([C@H](C)CN5C[C@H](F)C[C@H](F)C5)c34)c(=O)c12` (relative stereo) [Example 732, N-[(1S)-1-[(3P)-3-{4-chloro-1-[(2R)-1-[(3R,5S)-3,5-difluoropiperidin-1-yl]propan-2-yl]-3-methanesulfonamido-1H-indazol-7-yl}-7-(4,4-difluorocyclohexyl)-5-methyl-4-oxo-3H,4H-pyrido[2,3-d]pyrimidin-2-yl]-2-(3,5-difluorophenyl)ethyl]-2-[(2R*,4R*)-9-cyclopropyl-7,8-diazatricyclo[4.3.0.0^2,^4]nona-1(6),8-dien-7-yl]acetamide] has an EC50 [1] of 0.013 nM and a CC50 at 4 days [2] of over 20 nM.
Work on `Cc1cc(C2CCC(F)(F)CC2)nc2nc([C@H](Cc3cc(F)cc(F)c3)NC(=O)Cn3nc(C4CC4)c4c3C[C@@H]3C[C@H]43)n(-c3ccc(Cl)c4c(NS(C)(=O)=O)nn([C@H](C)CN5CC(C)(C)OC(C)(C)C5)c34)c(=O)c12` (relative stereo) [Example 734, N-[(1S)-1-[(3P)-3-{4-chloro-3-methanesulfonamido-1-[(2R)-1-(2,2,6,6-tetramethylmorpholin-4-yl)propan-2-yl]-1H-indazol-7-yl}-7-(4,4-difluorocyclohexyl)-5-methyl-4-oxo-3H,4H-pyrido[2,3-d]pyrimidin-2-yl]-2-(3,5-difluorophenyl)ethyl]-2-[(2R*,4R*)-9-cyclopropyl-7,8-diazatricyclo[4.3.0.0^2,^4]nona-1(6),8-dien-7-yl]acetamide] yielded an EC50 [1] of 0.038 nM and a CC50 at 4 days [2] of over 20 nM.
In the case of `Cc1cc(C2(F)CCC(F)(F)CC2)nc2nc([C@H](Cc3cc(F)cc(F)c3)NC(=O)Cn3nc(C4CC4)c4c3C[C@@H]3C[C@H]43)n(-c3ccc(Cl)c4c(NS(C)(=O)=O)nn(CCN5CCCC5=O)c34)c(=O)c12` (relative stereo) [Example 738, N-[(1S)-1-[(3P)-3-{4-chloro-3-methanesulfonamido-1-[2-(2-oxopyrrolidin-1-yl)ethyl]-1H-indazol-7-yl}-5-methyl-4-oxo-7-(1,4,4-trifluorocyclohexyl)-3H,4H-pyrido[2,3-d]pyrimidin-2-yl]-2-(3,5-difluorophenyl)ethyl]-2-[(2R*,4R*)-9-cyclopropyl-7,8-diazatricyclo[4.3.0.0^2,^4]nona-1(6),8-dien-7-yl]acetamide], the EC50 [1] is reported as 0.043 nM and the CC50 at 4 days [2] is reported as over 20 nM.
`Cc1cc(C2(F)CCC(F)(F)CC2)nc2nc([C@H](Cc3cc(F)cc(F)c3)NC(=O)Cn3nc(C4CC4)c4c3C[C@@H]3C[C@H]43)n(-c3ccc(Cl)c4c(NS(C)(=O)=O)nn(CCc5cccnc5)c34)c(=O)c12` (relative stereo) [Example 741, N-[(1S)-1-[(3P)-3-{4-chloro-3-methanesulfonamido-1-[2-(pyridin-3-yl)ethyl]-1H-indazol-7-yl}-5-methyl-4-oxo-7-(1,4,4-trifluorocyclohexyl)-3H,4H-pyrido[2,3-d]pyrimidin-2-yl]-2-(3,5-difluorophenyl)ethyl]-2-[(2R*,4R*)-9-cyclopropyl-7,8-diazatricyclo[4.3.0.0^2,^4]nona-1(6),8-dien-7-yl]acetamide] showed an EC50 [1] of 0.04 nM and a CC50 at 4 days [2] of over 20 nM.
`Cc1cc(C2(F)CCC(F)(F)CC2)nc2nc([C@H](Cc3cc(F)cc(F)c3)NC(=O)Cn3nc(C4CC4)c4c3C[C@@H]3C[C@H]43)n(-c3ccc(Cl)c4c(NS(C)(=O)=O)nn([C@H](C)C(=O)N5C[C@@H](C)O[C@@H](C)C5)c34)c(=O)c12` (relative stereo) [Example 744, N-[(1S)-1-[(3P)-3-{4-chloro-1-[(2R)-1-[(2R,6S)-2,6-dimethylmorpholin-4-yl]-1-oxopropan-2-yl]-3-methanesulfonamido-1H-indazol-7-yl}-5-methyl-4-oxo-7-(1,4,4-trifluorocyclohexyl)-3H,4H-pyrido[2,3-d]pyrimidin-2-yl]-2-(3,5-difluorophenyl)ethyl]-2-[(2R*,4R*)-9-cyclopropyl-7,8-diazatricyclo[4.3.0.0^2,^4]nona-1(6),8-dien-7-yl]acetamide] showed an EC50 [1] of 0.017 nM and a CC50 at 4 days [2] of over 20 nM.
For `Cc1cc(C2(F)CCC(F)(F)CC2)nc2nc([C@H](Cc3cc(F)cc(F)c3)NC(=O)Cn3nc(C4CC4)c4c3C[C@@H]3C[C@H]43)n(-c3ccc(Cl)c4c(NS(C)(=O)=O)nn([C@@H](C)CN5C[C@@H](C)O[C@@H](C)C5)c34)c(=O)c12` (relative stereo) [Example 748, N-[(1S)-1-[(3P)-3-{4-chloro-1-[(2S)-1-[(2R,6S)-2,6-dimethylmorpholin-4-yl]propan-2-yl]-3-methanesulfonamido-1H-indazol-7-yl}-5-methyl-4-oxo-7-(1,4,4-trifluorocyclohexyl)-3H,4H-pyrido[2,3-d]pyrimidin-2-yl]-2-(3,5-difluorophenyl)ethyl]-2-[(2R*,4R*)-9-cyclopropyl-7,8-diazatricyclo[4.3.0.0^2,^4]nona-1(6),8-dien-7-yl]acetamide], the EC50 [1] was 0.024 nM and the CC50 at 4 days [2] was over 20 nM.
`Cc1cc(C2(F)CCC(F)(F)CC2)nc2nc([C@H](Cc3cc(F)cc(F)c3)NC(=O)Cn3nc(C4CC4)c4c3C[C@@H]3C[C@H]43)n(-c3ccc(Cl)c4c(NS(C)(=O)=O)nn([C@H](C)C(=O)N5CC(C)(C)OC(C)(C)C5)c34)c(=O)c12` (relative stereo) [Example 750, N-[(1S)-1-[(3P)-3-{4-chloro-3-methanesulfonamido-1-[(2R)-1-oxo-1-(2,2,6,6-tetramethylmorpholin-4-yl)propan-2-yl]-1H-indazol-7-yl}-5-methyl-4-oxo-7-(1,4,4-trifluorocyclohexyl)-3H,4H-pyrido[2,3-d]pyrimidin-2-yl]-2-(3,5-difluorophenyl)ethyl]-2-[(2R*,4R*)-9-cyclopropyl-7,8-diazatricyclo[4.3.0.0^2,^4]nona-1(6),8-dien-7-yl]acetamide] showed an EC50 [1] of 0.028 nM and a CC50 at 4 days [2] of over 20 nM.
